Assay results from patent publication EP1891957A1 (Sloan-Kettering Institute for Cancer Research, priority 1996, dated 1998).
Where “and” joins values, the source holds several entries; their conditions need not be identical. Equal values may be shown once. Read-outs that look alike come from different tables or passages of the source.

Tests used:
[1] = system: B6D2F1 mice
[2] = in vivo; settings: rat, iv
[3] = dogs, 3 mg/kg i.v.
[4] = system: CD rats
[5] = in vivo; settings: dog, iv
[6] = system: human LX-1 lung cancer; settings: LX-1 xenograft, schedule and doses as Example 2; for Average Tumor Diameter (mm): nude mice
[7] = system: SKLC-16; test: Cytotoxicity, 3 hour pulse-exposure, SKLC-16; settings: Homo sapiens
[8] = system: SK-BRIII; test: Cytotoxicity, 3 hour pulse-exposure, SK-BRIII; settings: Homo sapiens
[9] = system: MDA468; test: Cytotoxicity, 3 hour pulse-exposure, MDA468; settings: Homo sapiens
[10] = system: human A549 lung cancer; settings: A549 xenograft, schedule and doses as Example 2; for Average Tumor Diameter (mm): nude mice
Text: Example 2 was repeated using xenografts of human A549 lung cancer in nude mice.

[11] = system: ZR-75-1; test: Cytotoxicity, 3 hour pulse-exposure, ZR-75-1; settings: Homo sapiens, ZR-75-1, 3 h
[12] = system: human MX-1 mammary carcinoma; test: Xenografts of human MX-1 mammary carcinoma in nude mice; settings: MX-1 xenograft; for Average Tumor Diameter (mm): nude mice, once a day for five days starting three days after implantation, 10-propargyl-10dAM 3 mg/kg, MTX 2 mg/kg, EDX 1.5 mg/kg, measured 14 days after start of treatment; for Complete Regressions: mice with no measurable tumor 14 days after start of treatment / mice treated; for Complete Regressions / Cures: same doses; for Cures: tumor free mice three weeks after cessation of therapy / mice treated

Row | Structure (SMILES) | Average Tumor Diameter (mm) [6] [mm] | Complete Regressions [6] | Cures [6] | Average Tumor Diameter (mm) [10] [mm] | Complete Regressions [10] | Cures [10] | Average Tumor Diameter (mm) [12] [mm] | Complete Regressions [12] | Cures [12] | also measured
1 | C#CCC(Cc1cnc2nc(N)nc(N)c2n1)c1ccc(C(=O)N[C@@H](CCC(=O)O)C(=O)O)cc1 (stereo partly drawn) [10-propargyl-10dAM, 10-Propargyl-10-deazaaminopterin] | – | – | – | – | – | – | – | – | – | mice died ([1]; 400 mg/kg i.p. QWX3, days 19, 20, 23 and 24): four out of five; mice died ([1]; 600 mg/kg i.p. QWX3, days 9, 18, 19 and 21): four out of five; LD50 [2]: ~110 mg/kg; metabolite (retention time 6.3 min) as part of the total urinary 10-propargyl-10dAM ([3]; urine at 1 hr): < 0.31%; metabolite (retention time 6.3 min) as part of the total urinary 10-propargyl-10dAM ([3]; urine at 4 hr): < 3.5%; animals died ([4]; 100 mg/kg i.v. QWX3, by day 23): one out of the five; rats died ([4]; 150 mg/kg i.v. QWX3, days 18, 20 and 23): three out of the five; rats died ([4]; 200 mg/kg i.v. QWX3, days 12, 14, 15, 20 and 20): all five; rats died ([4]; 300 mg/kg i.v. QWX3, days 11, 11, 12, 12 and 14): all five; LD10 ([4]; i.v. QWX3, conservative estimate, median-effect plot): about 75 mg/kg; LD50 [5]: ~8 mg/kg
2 | CCC(Cc1cnc2nc(N)nc(N)c2n1)c1ccc(C(=O)N[C@@H](CCC(=O)O)C(=O)O)cc1 (stereo partly drawn) [EDX, edatrexate] | 4.3 ± 2 | 3/10 | 1/10 | 6.8 ± 2 | 0/5 | 0/5 | 2.2 ± 1.1 | 6/20 | 2/20 | IC50 [7]: 260 ± 30 nM; IC50 [8]: 990 ± 150 nM; IC50 [9]: 380 ± 50 nM; IC50 [11]: 860 ± 100 nM
3 | CN(Cc1cnc2nc(N)nc(N)c2n1)c1ccc(C(=O)N[C@@H](CCC(=O)O)C(=O)O)cc1 [MTX, methotrexate] | 9.2 ± 2 | 0/10 | 0/10 | 8.3 ± 2 | 0/5 | 0/5 | 7.6 ± 0.8 | no regressions and 0/10 | 0/10 | –
